Test results as given in PMC6668435, “The structural basis of N-acyl-α-amino-β-lactone formation catalyzed by a nonribosomal peptide synthetase” (Nature Communications, 2019).

Legend:
ObiH = biological target: T1, ObiH (Burkholderia diffusa, UniProt Z9H1N4SZ53); experiment: LCMS detection of the β-hydroxy-α-amino acid product in coupled assay; format: biochemical
T1 sequence (Z9H1N4SZ53 1-440): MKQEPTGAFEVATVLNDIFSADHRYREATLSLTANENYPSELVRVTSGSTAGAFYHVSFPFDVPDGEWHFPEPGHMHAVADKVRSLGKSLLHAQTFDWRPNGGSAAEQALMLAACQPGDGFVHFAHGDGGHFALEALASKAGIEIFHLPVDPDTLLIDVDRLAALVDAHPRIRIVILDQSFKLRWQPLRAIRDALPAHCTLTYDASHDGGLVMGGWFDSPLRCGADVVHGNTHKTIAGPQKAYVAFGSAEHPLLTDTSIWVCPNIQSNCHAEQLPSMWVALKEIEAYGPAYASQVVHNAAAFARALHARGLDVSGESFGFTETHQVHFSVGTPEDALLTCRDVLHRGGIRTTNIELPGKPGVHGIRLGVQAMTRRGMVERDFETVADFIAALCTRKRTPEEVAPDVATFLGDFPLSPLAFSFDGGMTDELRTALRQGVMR

ObiF1 [1] = biological target: T2, ObiF1 (Burkholderia diffusa, UniProt A0A5H1ZR44); experiment: coupled ObiF1/F2/D/H reconstitution, LCMS product ion counts; format: biochemical; conditions: made in situ by ObiH from phenylacetaldehyde and L-Thr; 1 µM holo-ObiF1, 5 mM ATP, 2,3-DHB, GSH or DTT trap, pH 7.5, room temperature
T2 construct: full-length NRPS module C-A-PCP-TE-MLP (last residue Val1390), N-terminal His6, E. coli BL21(DE3), holo form (phosphopantetheinylated with Sfp and CoA); codon-optimised synthetic gene

ObiF2 = biological target: T3, ObiF2 (Burkholderia diffusa, UniProt Z9YLO8D081); experiment: coupled ObiF1/F2/D/H reconstitution, LCMS of acyl adenylate and product ions; format: biochemical
T3 sequence (Z9YLO8D081 1-545): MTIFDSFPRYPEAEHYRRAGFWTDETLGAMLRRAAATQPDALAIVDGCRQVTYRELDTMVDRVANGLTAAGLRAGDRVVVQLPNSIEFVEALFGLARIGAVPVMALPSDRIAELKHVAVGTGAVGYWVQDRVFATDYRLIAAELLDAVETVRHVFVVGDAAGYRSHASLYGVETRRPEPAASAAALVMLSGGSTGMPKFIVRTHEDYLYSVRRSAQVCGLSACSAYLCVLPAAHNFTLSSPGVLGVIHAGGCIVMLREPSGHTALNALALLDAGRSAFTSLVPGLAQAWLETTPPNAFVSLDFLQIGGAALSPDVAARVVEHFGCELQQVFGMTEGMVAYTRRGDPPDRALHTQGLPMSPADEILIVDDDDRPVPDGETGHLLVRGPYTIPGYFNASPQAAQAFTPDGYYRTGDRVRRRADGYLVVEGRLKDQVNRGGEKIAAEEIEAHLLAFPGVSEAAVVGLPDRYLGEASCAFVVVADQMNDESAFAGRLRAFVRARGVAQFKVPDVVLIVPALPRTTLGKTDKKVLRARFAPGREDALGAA

ObiF1 [2] = biological target: T2, ObiF1; experiment: X-ray crystal structure, […] Å; format: binding; conditions: holo-ObiF1 co-crystallised with 2 mM ligand; bound in A domain active site (adenylate-forming conformation)
[3] = biological target: ObiF1-del1304 (ObiF1 C-A-PCP-TE, terminated after Leu1303, without the MLP domain) (Burkholderia diffusa)

For `O=CCc1ccccc1` [1a, phenylacetaldehyde], the “LCMS detection of the β-hydroxy-α-amino acid product in coupled assay” value (ObiH) was “Starting from phenylacetaldehyde (PAA), the L-Thr transaldolase ObiH generates”.

With `N[C@H](C(=O)O)[C@H](O)Cc1ccccc1` [2a, β-OH-homoPhe] the “coupled ObiF1/F2/D/H reconstitution, LCMS product ion counts” value (ObiF1 [1]) was “The best substrates for ObiF1 were β-hydroxy-α-amino acids (2a, 2b) derived from phenylacetaldehydes”.

With `O=C(O)c1ccccc1O` [3c, 2-OH benzoic acid] the “coupled ObiF1/F2/D/H reconstitution, LCMS of acyl adenylate and product ions” value (ObiF2) was 2-OH and 3-OH benzoic acids (3c and 3d) were both activated and converted efficiently.

With `N[C@H](C(=O)O)[C@H](O)Cc1ccc([N+](=O)[O-])cc1` [β-OH-p-NO2-homoPhe, (2S,3R)-β-hydroxy-p-nitro-homophenylalanine] the “X-ray crystal structure, 3.0 Å” value (ObiF1 [2]) was “β-OH-p-NO2-homoPhe binds in the A domain active site”.

Molecule “ObiF1 MLP domain, residues 1304-1390, co-expressed in trans from the construct ObiF1 rbs1303/4 (domain or fragment)” has a product ion counts by LCMS in the ObiF1/F2/D/H reconstitution assay, protein sample rbs1303/4 (C-A-PCP-TE co-expressed with the MLP domain), no MLP added (fold lower than WT) [3] of 4.
